One data set has as its system HepG2 cells. Nature of the data set: WST-1 metabolic activity (cytotoxicity) in HepG2 cells. The class given is cell-based, human. The settings on record: HepG2, 250 μM (highest concentration), 4 hr. How it is done:
(§1) HepG2 and H‐4‐II‐E cells were differentiated for 24 hr. HepaRG cells were directly seeded in precoated 96‐well microtiter plates and were incubated in William's medium with general purpose supplements according to manufacturer's manual until adherence. All cells were treated with Ze 339 (up to 100 μg/ml) or petasin, isopetasin, neopetasin, petasol, isopetasol, petasin mixture, fatty acid mixture, and reconstituted extracts (up to 250 μM) for 4 hr.
(§2) In the three cell lines, cytotoxicity was defined as a decrease in metabolic activity of ≥20% in the WST‐1 assay. At the end of the experiment, 10 μl WST‐1 reagent was added to each well. Plates were then incubated for 2 hr to allow for the reduction of WST‐1 reagent. Absorbance was measured using a microplate absorbance reader (Infinite M 200, Tecan Trading Ltd., Switzerland) at 450 nm, reference wavelength of 620 nm. Due to some matrix effect, the lowest concentration (0.02 μg/ml for Ze 339 and 3.9 μM for single constituents and mixtures) of each substance tested was defined as 100% metabolic activity. Results were expressed as percentage of the control metabolic activity, and data were presented as mean values ± SEM (n = 3–6).
(§3) Concentration‐response analysis was done using the sigmoidal Hill equation: E(t) = E0 − Emax × C(t)^N/(IC50 ^N + C(t)^N), where E is the effect at time t, E0 the effect at baseline (time = 0), IC50 the concentration yielding 50% of the maximal effect (Emax), and N denotes the sigmoidicity coefficient (Origin 2017 Software). For statistical analysis, analysis of variance with Dunnett's multicomparison test was used to correct for multiplicity of testing (IBM SPSS Statistics software, version 25, IBM Corp., USA). The level of significance was ^* p < .05, ^** p < .01 and ^*** p < .001; NS = no significance.
(Tetrazolium dyes change colour on reduction, which living cells bring about.)

In the next data set the target is T1, CYP2B6 (human) (Homo sapiens, UniProt P20813).
T1 construct: purchased BD Gentest (Switzerland); host or cells: baculovirus expression system
T1 sequence (P20813 1-491): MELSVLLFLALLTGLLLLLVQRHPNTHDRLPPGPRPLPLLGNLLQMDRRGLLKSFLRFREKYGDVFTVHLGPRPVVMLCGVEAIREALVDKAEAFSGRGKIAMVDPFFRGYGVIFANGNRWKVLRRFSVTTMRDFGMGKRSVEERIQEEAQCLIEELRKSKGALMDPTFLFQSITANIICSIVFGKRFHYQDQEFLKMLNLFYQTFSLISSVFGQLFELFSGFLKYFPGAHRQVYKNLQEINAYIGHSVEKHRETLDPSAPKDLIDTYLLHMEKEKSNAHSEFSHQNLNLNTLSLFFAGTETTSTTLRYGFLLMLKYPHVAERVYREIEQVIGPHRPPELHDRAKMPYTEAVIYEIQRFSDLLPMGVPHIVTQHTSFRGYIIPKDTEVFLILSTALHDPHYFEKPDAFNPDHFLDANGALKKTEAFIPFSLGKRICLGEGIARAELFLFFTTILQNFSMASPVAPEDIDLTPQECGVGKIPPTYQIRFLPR
Nature of the data set: Metabolism by isolated human CYP2B6. The note with it: petasins 20 μM, 60 min. The class given is in vitro ADME. From the text:
(§4) The metabolism of petasin, isopetasin, and neopetasin was investigated using three different S9 fractions originating from three different species (isolated from rat, dog, and human liver homogenates containing cytochrome P450 isoforms) and isolated cytochromes of two different species (human and rat; rat analogues of the respective human cytochromes were used). For the expression of the different cytochromes, a baculovirus expression system was used according to supplier's manual. The S9 fractions or respectively single P450 cytochromes were used to mimic the liver metabolism by in vitro incubation.
(§5) The assay was carried out in triplicate in 1.5 ml glass vials with a final concentration of 20 μM of petasin, isopetasin, and neopetasin. The incubation was performed in a 37°C warm water bath. S9 fractions were thawed slowly on ice. Four different approaches were pursued by testing: (a) petasin, neopetasin, and isopetasin before (0 min) and after 60 min incubations with S9 fraction; (b) petasin, neopetasin, and isopetasin without S9 fraction after 60 min incubation; (c) vehicle as negative controls; and (d) cofactors of S9 fraction after 60‐min incubation.
(§6) A mixture of NADPH regeneration systems A (20‐fold) and B (100‐fold), phosphate buffer, and H2O was added, preincubated at 37°C, and shaken gently for 5 min. Afterwards, the recommended amount between 10 and 40 pmol/ml of enzyme or enzyme mixture was added according to manufacturer's instruction and incubated for further 60 min at 37°C and gently shaken. Afterwards, the reactions were stopped by addition of acetonitrile (400 μl). For the control sample, acetonitrile was added at 0 min incubation. The samples were centrifuged for 3 min at 10,000 × g. The supernatant was transferred to high‐performance liquid chromatography vials and analyzed by ultra‐performance liquid chromatography mass spectrometry (UPLC/MS). The UPLC analysis was performed with an UPLC Acquity H Class from Waters (Waters Corporation, Switzerland) including a quaternary high‐pressure gradient pump, an automatic sample injector, and a column thermostat. […]

A further data set concerns the target T2, CYP2C11 (rat) (Rattus norvegicus, UniProt P08683).
T2 construct: purchased BD Gentest (Switzerland); host or cells: baculovirus expression system
T2 sequence (P08683 1-500): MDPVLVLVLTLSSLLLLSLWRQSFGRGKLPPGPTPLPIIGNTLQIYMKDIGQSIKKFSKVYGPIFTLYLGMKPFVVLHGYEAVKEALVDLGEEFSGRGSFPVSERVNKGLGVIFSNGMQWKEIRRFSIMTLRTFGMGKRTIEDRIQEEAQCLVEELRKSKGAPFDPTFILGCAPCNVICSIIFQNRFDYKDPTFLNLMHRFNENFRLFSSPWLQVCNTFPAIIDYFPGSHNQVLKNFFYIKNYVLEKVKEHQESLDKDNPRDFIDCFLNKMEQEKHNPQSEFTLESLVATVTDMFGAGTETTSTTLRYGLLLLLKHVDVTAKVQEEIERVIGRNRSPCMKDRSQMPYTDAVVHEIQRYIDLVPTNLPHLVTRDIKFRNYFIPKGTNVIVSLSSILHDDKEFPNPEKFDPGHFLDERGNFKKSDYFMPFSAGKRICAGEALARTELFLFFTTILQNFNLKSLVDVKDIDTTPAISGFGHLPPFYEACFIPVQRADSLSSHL
Nature of the data set: Metabolism by isolated rat CYP2C11. The class given is in vitro ADME. The note with it: petasins 20 μM, 60 min.
Source text: as §4, §5, §6

The subject of data set [1] is S9 fractions from rat, dog and human. Nature of the data set: Metabolism by liver S9 fractions from different species. It is filed as in vitro ADME, rat (Sprague Dawley), dog (beagle). The note with it: 20 μM, 60 min incubation.
Source text: as §4, §5, §6

Another data set concerns HepaRG cells. Nature of the data set: WST-1 metabolic activity (cytotoxicity) in HepaRG cells. The class given is cell-based, human. The note with it: 250 μM, 4 hr. How it is done: as §1, §2, §3

Molecules are shown by their SMILES.

For `C/C=C(/C)C(=O)O[C@@H]1CCC2=CC(=O)C(=C(C)C)C[C@]2(C)[C@H]1C` [isopetasin], the “metabolic activity compared with the reference concentration (3.9 μM)” value in the data set on HepG2 cells stood at 65.6%. Further, the “extent of metabolism by CYP2B6 (human)” value on CYP2B6 (human) is given as 13%. The “extent of metabolism by CYP2C11 (rat)” value on CYP2C11 (rat) was found to be 84%. Besides, the “rank order of extent of metabolism by S9 fractions of different species” value in data set [1] is on record as “rat>dog>human”. In the data set with HepaRG cells, this molecule registered a metabolic activity of 73%.

Consider `C=C(C)[C@H]1C[C@@]2(C)C(=CC1=O)CC[C@@H](OC(=O)/C(C)=C\C)[C@@H]2C` [neopetasin], for which the “metabolic activity compared with the reference concentration (3.9 μM)” value with HepG2 cells turned out to be 66.8%. Moreover, on CYP2B6 (human), the “extent of metabolism by CYP2B6 (human)” value was determined as 20%. Besides, on CYP2C11 (rat), the “extent of metabolism by CYP2C11 (rat)” value is given as 74%. Further, in data set [1], the “rank order of extent of metabolism by S9 fractions of different species” value was “rat>dog>human”. For the same molecule, in the data set with HepaRG cells, the metabolic activity turned out to be 28.9%.

For `C=C(C)[C@@H]1C[C@@]2(C)C(=CC1=O)CC[C@@H](OC(=O)/C(C)=C\C)[C@@H]2C` [petasin], the “metabolic activity compared with the reference concentration (3.9 μM)” value in the data set with HepG2 cells is 60.9%. The “extent of metabolism by CYP2B6 (human)” value on CYP2B6 (human) came out at 50%. The “extent of metabolism by CYP2C11 (rat)” value at CYP2C11 (rat) turned out to be 55%. For the same molecule, in data set [1], the “rank order of extent of metabolism by S9 fractions of different species” value is on record as “rat>dog>human”. Moreover, in the data set with HepaRG cells, the metabolic activity was determined as 37.7%.

The values above are taken from publication PMC7004140, “In vitro hepatotoxicity of Petasites hybridus extract (Ze 339) depends on the concentration, the cytochrome activity of the cell system, and the species used” (Phytotherapy Research, 2019).
